These results are taken from article PMC5767893 (ACS Medicinal Chemistry Letters, 2017).

SMILES strings stand for the structures.

One data set addresses T1, p300 HAT domain (Homo sapiens, UniProt Q09472).
T1 sequence (Q09472 1287-1663 limits assumed): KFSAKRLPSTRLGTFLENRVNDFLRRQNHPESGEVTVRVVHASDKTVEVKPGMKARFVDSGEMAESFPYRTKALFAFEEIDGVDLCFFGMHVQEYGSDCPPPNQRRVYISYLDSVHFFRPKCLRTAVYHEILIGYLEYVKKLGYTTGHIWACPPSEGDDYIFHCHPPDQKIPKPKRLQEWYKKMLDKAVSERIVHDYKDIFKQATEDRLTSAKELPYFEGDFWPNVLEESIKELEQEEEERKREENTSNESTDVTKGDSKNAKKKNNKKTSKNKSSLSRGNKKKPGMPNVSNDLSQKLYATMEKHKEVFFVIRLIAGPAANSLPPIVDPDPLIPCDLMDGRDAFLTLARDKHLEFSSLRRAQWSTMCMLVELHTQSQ
The following applies: for LE (ligand efficiency): LE = −1.4 log Ki/# heavy atoms.

For data set [1] the following is noted: mouse.
Data set [2] can be described thus: Mouse microsomal stability. Type of data set: in vitro ADME. The settings on record: microsomes.
The nature of data set [3]: Nonspecific microsomal binding. The settings on record: human, microsomes. Type of data set: in vitro ADME.
A further data set in a line: Plasma protein binding. Type of data set: in vitro ADME. The settings on record: mouse.
A further data set in a line: in vivo. The following applies: mouse, plasma, po, 1 mg/kg.

Take `CC(C1CC1)N(Cc1ccccc1)C(=O)CN1C(=O)NC(Cc2c[nH]c3ccccc23)C1=O` (stereo not drawn) [Compound 1]: the “LE (ligand efficiency)” value at p300 HAT domain was 0.23. Besides, at p300 HAT domain (LipE = −log Ki – clogP), the “LipE (lipid efficiency)” value was 3.
`Cc1ccccc1C1NC(=O)N(CC(=O)N(Cc2ccccc2)[C@@H](C)C2CC2)C1=O` (stereo partly drawn) [Compound 3b]: the “LE (ligand efficiency)” value on p300 HAT domain came out at 0.27.
For `CNC(=O)Nc1ccc2c(c1)CC[C@]21NC(=O)N(CC(=O)N(Cc2ccccc2)[C@@H](C)C2CC2)C1=O` [Compound 20], the “oral AUC” value in data set [1] (10 mg/kg oral dose) was “no exposure”.
As for `CNC(=O)Nc1ccc2c(c1)CC[C@@]21OC(=O)N(CC(=O)N(Cc2ccccc2)[C@@H](C)C2CC2)C1=O` [Compound 22], in data set [2], the CLint scaled is 188 L/h/kg and the “mouse microsomal stability CL scaled” value was determined as 107 L/h/kg.
In the case of `CNC(=O)Nc1ccc2c(c1)CC[C@@]21OC(=O)N(CC(=O)N(Cc2ccc(F)cc2)[C@H](C2CC2)C(F)(F)F)C1=O` [Compound 23], the fraction unbound was 0.22 in data set [3] and 0.002 in “Plasma protein binding”. This compound displayed a F % oral in data set [1] of 45%. The compound also came in with an exposure (AUC) in the data set “in vivo” of 1100 ng·h/mL. The compound further gave a CLint scaled in data set [2] of 181 L/h/kg. For the same compound, the “mouse microsomal stability CL scaled” value in data set [2] worked out at 41 L/h/kg.
